# Marks after values point to notes of the source that are not given here.
# What was measured:
# [1] = tested on: carbon tetrachloride model of liver fibrosis; assay: Carbon tetrachloride (in vivo) model of liver fibrosis, weekly gliotoxin injection; set-up: species or system rat; details: for Liver α-sma staining (number of α-sma-positive cells) / Serum ALP / Serum ALT / Sirius red staining (mid intralobular μm): weekly gliotoxin injection 3 mg/kg i.p.
# Method: (§1) Rats were randomly sorted into groups and treated with 2 mL CCl4:olive oil (1:1 [vol/vol])/kg body weight by intraperitoneal injection twice weekly to cause liver fibrosis. Control animals were treated with 1 mL olive oil/kg body weight by intraperitoneal injection. Gliotoxin was administered at up to 3 mg gliotoxin/kg body weight by intraperitoneal injection. Gliotoxin was dissolved in dimethyl sulfoxide (DMSO) as a vehicle, and control animals received DMSO alone.
# (§2) At the required time, rats were killed by carbon dioxide asphyxiation and tissues removed for analysis. Serum was prepared and analyzed for alkaline phosphatase and alanine aminotransferase activities essentially as previously described. (Wright et al., Biochem. Pharmacol., (1992) 43:237-243) Histochemical staining of formalin-fixed liver sections with H&E, Sirius red, and immunochemical staining for α-smooth muscle actin were performed essentially as previously described (Iredale et al.,—1998—supra)
# [2] = tested on: carbon tetrachloride model of liver fibrosis; assay: Carbon tetrachloride (in vivo) model of liver fibrosis, single gliotoxin injection; set-up: species or system rat; details: for Serum ALP / Serum ALT: killed 24 hours after gliotoxin
# Method: as §1, §2
# The effect of a single injection of gliotoxin on α-smooth muscle actin liver immunostaining after treatment for seven weeks with carbon tetrachloride was then determined. One day after the final injection of carbon tetrachloride, rats were administered gliotoxin and killed after a further day.
# The effect of a single injection of gliotoxin on liver TUNEL staining after treatment for seven weeks with carbon tetrachloride was measured. One day after the final injection of carbon tetrachloride, rats were administered gliotoxin and then killed after a further day. Control animals received DMSO alone in place of gliotoxin. Liver sections from the rats were TUNEL stained with or without the incorporation of dUTP in the staining protocol. Sections were then counterstained with hematoxylin.
# The effect of a single injection of gliotoxin on liver sirius red staining after treatment for seven weeks with carbon tetrachloride was then determined. As before, one day after the final injection of carbon tetrachloride, rats were administered gliotoxin and killed after a further day.
# [3] = tested on: rat hepatic stellate cells; assay: Low molecular weight DNA fragmentation (nucleosomal ladder) in rat hepatic stellate cells; type: cell-based; details: 37.5 μmol/L gliotoxin
# [4] = tested on: human hepatic stellate cells; assay: Hepatic stellate cell apoptosis by acridine orange staining and counting (cycloheximide or serum deprivation), human cells; type: cell-based; details: human hepatic stellate cells
# Method: Human hepatic stellate cells were extracted from the margins of normal human liver resected for colonic metastatic disease as previously described (Iredale et al., Clin. Sci., (1995) 89: 75-81). Rat hepatic stellate cells were extracted from normal rat liver by Pronase and collagenase digestion and purified by centrifugal elutriation as described (Arthur et al., J. Clin. Invest., (1989) 84:1076-1085). Extracted hepatic stellate cells were cultured on plastic until they were activated to a myofibroblastic phenotype after 7 to 10 days. Human and rat hepatic stellate cells were used for experiments after activation in primary culture or before fourth passage. Cells were cultured in Dulbecco's modified Eagle's medium in the presence of 16% fetal calf serum and antibiotics.
# Apoptosis of hepatic stellate cells was induced by absolute serum deprivation, cycloheximide treatment (Issa et al., Gut (2001) 48: S48-S57), or exposure to nerve growth factor as previously described (Trim et al., Am. J. Pathol., (2000) 156, 1235-1243). Hepatic stellate cells were cultured in 24-well tissue culture plates. […] Following a 4 hour incubation at 37° C., nuclear morphology was assessed by adding acridine orange to each well (final concentration 1 μg/ml) and observing the cells under blue fluorescence. The total number of apoptotic bodies was counted, and any apoptotic bodies floating in the supernatant were included by racking up the objective lens. The total number of cells per field was counted, and an apoptotic index was calculated. Each condition was performed in duplicate, and three high power fields were counted for each well. […] To examine for autocrine effects, hepatic stellate cells were incubated for 18 hours with azide-free polyclonal neutralizing antibodies to TIMP-1 and a nonimmune IgG control (Santa Cruz Biotechnology, Inc., Santa Cruz, Calif.), and responses were assessed by acridine orange staining and counting.
# Apoptosis was assessed by acridine orange staining. […]
# [5] = biological target: T1, recombinant human caspase-3 (Homo sapiens, UniProt P42574); assay: Direct effect on recombinant caspase-3; type: biochemical; details: TIMP-1 285-2850 ng/ml, 1 hour preincubation
# T1 construct: purchased Calbiochem
# T1 sequence (P42574 29-175 limits assumed): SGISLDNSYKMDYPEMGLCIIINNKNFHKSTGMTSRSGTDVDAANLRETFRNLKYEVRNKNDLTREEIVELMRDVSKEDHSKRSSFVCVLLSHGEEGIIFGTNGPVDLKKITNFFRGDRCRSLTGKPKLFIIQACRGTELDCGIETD
# T1 sequence (P42574 176-277 limits assumed): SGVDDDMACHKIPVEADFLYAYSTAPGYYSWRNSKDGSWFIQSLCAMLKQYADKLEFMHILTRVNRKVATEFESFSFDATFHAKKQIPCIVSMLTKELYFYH
# Method: Apoptosis was quantified by a colorimetric assay for caspase-3 activity (Promega) according to the manufacturer's instructions.
# To exclude a direct effect of TIMP-1 on caspase-3 activity, recombinant human caspase-3 (Calbiochem) was incubated with TIMP-1 in varying concentrations (285-2850 ng/ml) for 1 hour before caspase-3 substrate was added to the reaction.
# [6] = single gliotoxin injection 0.3 mg/kg i.p., CCl4 twice weekly seven weeks
# [7] = single gliotoxin injection 0.3 mg/kg i.p., no CCl4 (olive oil seven weeks)
# [8] = single gliotoxin injection 3 mg/kg i.p., CCl4 twice weekly seven weeks
# [9] = single gliotoxin injection 3 mg/kg i.p., no CCl4 (olive oil seven weeks)
compound,measurement,setting,value
CN1C(=O)[C@]23CC4=CC=C[C@H](O)[C@H]4N2C(=O)[C@@]1(CO)SS3 [gliotoxin],liver serum enzymes caused by carbon tetrachloride treatment,[1]; gliotoxin administered during CCl4 treatment,significantly reduces the levels of liver serum enzymes
same,number of activated hepatic stellate cells and thickness of fibrotic bands,[1]; gliotoxin administered during the liver insult (CCl4),significantly reduces the number of activated hepatic stellate cells and thickness of fibrotic bands
same,hepatotoxicity of long term administration,[1]; weekly gliotoxin,no evidence that long term administration of gliotoxin is itself hepatotoxic
same,Liver α-sma staining (number of α-sma-positive cells),[1]; CCl4 twice weekly 4 weeks,6 ± 1.2
same,Serum ALP,[1]; CCl4 twice weekly 4 weeks,429 ± 25^a μ/mL
same,Serum ALT,[1]; CCl4 twice weekly 4 weeks,300 ± 111^b μ/mL
same,Sirius red staining (mid intralobular μm),[1]; CCl4 twice weekly 4 weeks,4.6 ± 3.1^£ μm
same,Liver α-sma staining (number of α-sma-positive cells),[1]; no CCl4 (olive oil 4 weeks),1.4 ± 1.38
same,Serum ALP,[1]; no CCl4 (olive oil 4 weeks),249 ± 26 μ/mL
same,Serum ALT,[1]; no CCl4 (olive oil 4 weeks),89 ± 58 μ/mL
same,Sirius red staining (mid intralobular μm),[1]; no CCl4 (olive oil 4 weeks),0 μm
same,reduction in number of α-smooth muscle actin-positive cells in CCl4 treated rat liver,[2]; single dose of 3 mg/kg body wt,57%
same,Liver α-sma staining (number of α-sma-positive cells),[2]; [6],35 ± 11.4
same,Sirius red staining (mid intralobular μm),[2]; [6],9 ± 2.3 μm
same,Serum ALP,[2]; [6],790 ± 128 μ/mL
same,Serum ALT,[2]; [6],1310 ± 342 μ/mL
same,Liver α-sma staining (number of α-sma-positive cells),[2]; [7],2.5 ± 0.70
same,Sirius red staining (mid intralobular μm),[2]; [7],0 μm
same,Serum ALP,[2]; [7],336 ± 48 μ/mL
same,Serum ALT,[2]; [7],59 ± 4 μ/mL
same,Liver α-sma staining (number of α-sma-positive cells),[2]; [8],16 ± 6.4
same,Sirius red staining (mid intralobular μm),[2]; [8],7 ± 3.6^£ μm
same,Serum ALP,[2]; [8],755 ± 295 μ/mL
same,Serum ALT,[2]; [8],1740 ± 1100 μ/mL
same,Liver α-sma staining (number of α-sma-positive cells),[2]; [9],1.2 ± 0.24
same,Sirius red staining (mid intralobular μm),[2]; [9],0 μm
same,Serum ALP,[2]; [9],269 ± 25 μ/mL
same,Serum ALT,[2]; [9],50 ± 5 μ/mL
same,TUNEL-positive cells in liver regions staining for α-smooth muscle actin,[2]; single gliotoxin injection after seven weeks CCl4,increase in the number of TUNEL-positive cells
same,fibrosis on blinded examination of sirius red stained liver sections,[2]; single injection of gliotoxin at 3 mg/kg after seven weeks CCl4,significantly reduced fibrosis
same,change in serum liver enzyme levels,[2]; single injection of gliotoxin to control or carbon tetrachloride treated rats,did not result in any significant change in serum liver enzyme levels
same,level of DNA cleavage at high concentration versus lower concentrations,[3],reduction in the level of DNA cleavage detected
TIMP-1: recombinant tissue inhibitor of matrix metalloproteases 1 (Biogenesis),apoptosis of human HSC (cycloheximide 4 h or serum deprivation 18 h),[4],identical antiapoptotic effects
same,direct effect on caspase-3 activity,[5],did not reduce caspase-3 activity directly
